The source of these data is patent US12655160B2, “KRAS G12D inhibitors” (Mirati Therapeutics, Inc., priority 2020, dated 2026).

Structures are written as SMILES. Counter-ions that a name gives are not always drawn. Like-named read-outs stand apart in the source and are kept apart here. A value given as a limit tells only on which side of the number the result lay.

As a reminder, the IC50 is the concentration that gives 50% inhibition. In general, Kd refers to the equilibrium constant for the complex coming apart.

The target of assay [1] is T1, KRas G12D (Homo sapiens, UniProt P01116, G12D). Nature of the assay: KRas G12D Binding Assay (TR-FRET displacement of labeled tracer). Further details: corresponding to amino acids 1:169, produced at Array BioPharma Inc; biotin (biotinylated). To be noted: TR-FRET displacement of Cy5 labelled tracer, Biotinylated GDP-loaded KRAS G12D (amino acids 1:169), 60 minute incubation at 22° C. In outline: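 Biotinylated GDP-loaded KRAS G12D (aa 1:169) was incubated with Cy5 tracer, Eu-streptavidin and compound (2% DMSO) in HEPES pH 7.5, MgCl2, Tween-20, DTT, 60 min at 22° C. TR-FRET ratio gave POC; IC50 from 4-parameter fit at 50 POC.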
(In general: TR-FRET usually uses a lanthanide donor and a delayed reading to cut background.)
Target sequence in this assay (P01116 1-169 isoform P01116-2 G12D): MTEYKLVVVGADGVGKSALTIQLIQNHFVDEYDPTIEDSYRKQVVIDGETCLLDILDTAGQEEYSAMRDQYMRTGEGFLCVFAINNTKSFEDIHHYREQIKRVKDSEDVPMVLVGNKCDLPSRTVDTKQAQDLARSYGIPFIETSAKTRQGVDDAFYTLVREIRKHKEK

For assay [2], the target named is T1, KRas G12D. The experiment in a line: KRas G12D Surface Plasmon Resonance (SPR) Binding Assay. Further details: Avidin-tag (so in the source). As to conditions: Biacore T200, Biotinylated Avidin-tagged KRAS protein on SA chip, 20 C, 1:1 binding model. As to the method: This Example illustrates that exemplary compounds of the present invention bind to KRas G12D as measured by surface plasmon resonance (SPR). Briefly, 1 L of 1.05×HBS-Mg buffer (262.5 mM BioUltra Hepes, pH 7.5, 157.5 mM NaCl, 105 mM MgCl2, 0.525 mM TCEP, 0.0305% Brij-35) was prepared and filter sterilized using a 0.22 μm bottle top filter. Approximately 50 mL of 1.05×HBS-Mg buffer was removed and saved for future dilutions. A 50 mL aliquot of DMSO (Sigma Aldrich DMSO Lot. #SHBK2079) was added and continued to stir for 10 minutes, creating the final 1.0×HBS-Mg buffer (250 mM BioUltra Hepes pH 7.5, 150 mM NaCl, 100 mM MgCl2, 0.5 mM TCEP, 0.03% Brij-35). Biacore T200 instrument was primed using 1.0×HBS-Mg buffer before docking a GE Streptavidin (SA) chip and then primed two additional times prior to beginning the immobilization step. All immobilized protein mixtures were created using 3-5 mg/mL Biotinylated Avidin-tagged KRAS protein using the following immobilization settings: SA chip type, 1 flow cells per cycle, 720 second contact time, and 5 μL/min flow rate. Normalization of the detector was also performed during the immobilization step using the GE BiaNormalize solution. All compounds were diluted to 10 mM in 100% DMSO prior to being diluted 20× in 1.05× buffer. Another 10λ dilution was created using 1.0× buffer prior to performing a series of 3× dilutions to create a compound concentration curve using the following assay settings: 20 C analysis temperature, General Settings=10 Hz data collection rate and multi-detection; Assay Steps=all set to LMW kinetics; Cycle Types=LMW kinetics (60 s contact time, 120 s dissociation time, 100 μL/min flow rate, extra wash after injection with 50% DMSO, flow path 1,2,3,4); Flow path detection=2-1, 4-3). Data evaluation was performed using the Biacore T200 Evaluation software and data fit to 1:1 binding model.
Target sequence in this assay (P01116 1-188 isoform P01116-2 G12D): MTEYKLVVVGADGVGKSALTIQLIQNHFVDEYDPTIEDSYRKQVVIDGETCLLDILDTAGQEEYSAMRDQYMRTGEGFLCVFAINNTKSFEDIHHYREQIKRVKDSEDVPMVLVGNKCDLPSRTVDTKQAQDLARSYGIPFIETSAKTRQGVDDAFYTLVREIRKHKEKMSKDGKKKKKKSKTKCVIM

Assay [3] relates to KRas G12D-mediated Phosphorylation of ERK. The experiment in a line: Inhibition of KRas G12D-mediated Phosphorylation of ERK in AGS cells. In kind it is cell-based. To be noted: Homo sapiens. The procedure: AGS cells (ATCC CRL-1739) expressing G12D were grown in DMEM medium supplemented with 10% fetal bovine serum, 10 mM HEPES, and Penicillin/Streptomycin. Cells were plated in tissue culture treated 96 well plates at a density of 40,000 cells/well and allowed to attach for 12-14 hours. Diluted compounds were then added in a final concentration of 0.5% DMSO. After 3 hours, the medium was removed, 150 μl of 4.0% formaldehyde was added and the plates incubated at room temperature for 20 minutes. The plates were washed with PBS, and permeabilized with 150 μL of ice cold 100% methanol for 10 minutes. Non-specific antibody binding to the plates was blocked using 100 μL Licor blocking buffer (Li-Cor Biotechnology, Lincoln NE) for 1 hour at room temperature.
The amount of phospho-ERK was determined using an antibody specific for the phosphorylated form of ERK and compared to the amount of GAPDH. Primary antibodies used for the detection were added as follows: Phospho-ERK(Cell Signaling cs-9101) diluted 1:500 and GAPDH (Millipore MAB374) diluted 1:5000 in Licor block+0.05% Tween 20. The plates were incubated for 2 hours at room temperature. The plates were washed with PBS+0.05% Tween 20.
Secondary antibodies used to visualize primary antibodies were added as follows: Anti-rabbit-680 diluted 1:1000 and Anti-mouse-800 diluted 1:1000 both in Licor block+0.05% Tween20, and were incubated for 1 hour at room temperature. The plates were washed with PBS+0.05% Tween 20. A 100 μl aliquot of PBS was added to each well and the plates were read on a Li-Cor Odyssey CLX plate reader.
The phospho-ERK(Thr202/Tyr204 signal was normalized to the GAPDH signal for each well and percent of DMSO control values were calculated. IC50 values were generated using a 4-parameter fit of the dose response curve

Setting [4] is: AGS cells expressing G12D, 3 hours, phospho-ERK signal normalized to GAPDH, read-out: IC50.

As for `CN(C)C1(CNc2nc(OC[C@@]34CCCN3C[C@H](F)C4)nc3c(F)c(-c4cc(O)cc5ccccc45)ncc23)CCCC1` [Example 7, 4-(4-(((1-(dimethylamino)cyclopentyl)methyl)amino)-8-fluoro-2-(((2R,7aS)-2-fluorotetrahydro-1H-pyrrolizin-7a(5H)-yl)methoxy)pyrido[4,3-d]pyrimidin-7-yl)naphthalen-2-ol bis(2,2,2-trifluoroacetate)], the IC50 was found to be 10 nM in assay [1] and 711 nM in assay [3] (setting [4]). The Kd in assay [2] is 12.2 nM.

Consider `CC1(CNc2nc(OC[C@@]34CCCN3C[C@H](F)C4)nc3c(F)c(-c4cc(O)cc5ccccc45)ncc23)CNC1` [Example 8, 4-(8-fluoro-2-(((2R,7aS)-2-fluorotetrahydro-1H-pyrrolizin-7a(5H)-yl)methoxy)-4-(((3-methylazetidin-3-yl)methyl)amino)pyrido[4,3-d]pyrimidin-7-yl)naphthalen-2-ol], for which the IC50 in assay [1] was 39.9 nM; in assay [3] (setting [4]), over 16700 nM. The affinity in assay [2], expressed as Kd, was 66.8 nM.

Turning to `C#Cc1cccc2cccc(-c3ncc4c(NCC5(N(C)C)CCC5)nc(OC[C@@]56CCCN5C[C@H](F)C6)nc4c3F)c12` [Example 20, N-((1-(dimethylamino)cyclobutyl)methyl)-7-(8-ethynylnaphthalen-1-yl)-8-fluoro-2-(((2R,7aS)-2-fluorotetrahydro-1H-pyrrolizin-7a(5H)-yl)methoxy)pyrido[4,3-d]pyrimidin-4-amine bis(2,2,2-trifluoroacetate)], the IC50 in assay [1] was determined as 22 nM; in assay [3] (setting [4]), 2510 nM.

Turning to `CCc1cccc2cc(O)cc(-c3ncc4c(NCC5(N(C)C)CCC5)nc(OC[C@]56CCCN5[C@@H](COC(=O)N(C)C)CC6)nc4c3F)c12` [Example 43, ((3R,7aR)-7a-(((4-(((1-(dimethylamino)cyclobutyl)methyl)amino)-7-(8-ethyl-3-hydroxynaphthalen-1-yl)-8-fluoropyrido[4,3-d]pyrimidin-2-yl)oxy)methyl)hexahydro-1H-pyrrolizin-3-yl)methyl dimethylcarbamate], the IC50 in assay [1] was 1.1 nM; in assay [3] (setting [4]), 53.5 nM.

For `CN(C)C1(CNc2nc(OC[C@]34CCCN3[C@@H](COC(=O)N3CCCCC3)CC4)nc3c(F)c(-c4cccc5cccc(Cl)c45)ncc23)CCC1` [Example 50, ((3R,7aR)-7a-(((7-(8-chloronaphthalen-1-yl)-4-(((1-(dimethylamino)cyclobutyl)methyl)amino)-8-fluoropyrido[4,3-d]pyrimidin-2-yl)oxy)methyl)hexahydro-1H-pyrrolizin-3-yl)methyl piperidine-1-carboxylate], the IC50 in assay [1] is 89.6 nM; in assay [3] (setting [4]), 10700 nM.

With `CN(C)C1(CNc2nc(OC[C@@]34CCCN3C[C@H](F)C4)nc3c(F)c(-c4cc(O)cc5ccccc45)ncc23)CCC1` [Example 1, 4-(4-(((1-(dimethylamino)cyclobutyl)methyl)amino)-8-fluoro-2-(((2R,7aS)-2-fluorotetrahydro-1H-pyrrolizin-7a(5H)-yl)methoxy)pyrido[4,3-d]pyrimidin-7-yl)naphthalen-2-ol], the IC50 was 19.6 nM in assay [1] and 692 nM in assay [3] (AGS, 3 h). In assay [2], this molecule returned a Kd of 14.7 nM.

In the case of `C#Cc1c(F)ccc2cc(O)cc(-c3ncc4c(NCC5(N(C)C)CCC5)nc(OC[C@]56CCCN5[C@@H](COC(=O)N(C)C)CC6)nc4c3F)c12` [Example 45, ((3R,7aR)-7a-(((4-(((1-(dimethylamino)cyclobutyl)methyl)amino)-7-(8-ethynyl-7-fluoro-3-hydroxynaphthalen-1-yl)-8-fluoropyrido[4,3-d]pyrimidin-2-yl)oxy)methyl)hexahydro-1H-pyrrolizin-3-yl)methyl dimethylcarbamate], the IC50 in assay [1] came to 0.4 nM; in assay [3] (setting [4]), 38.3 nM.

`CN(CC1(N(C)C)CCC1)c1nc(OC[C@@]23CCCN2C[C@H](F)C3)nc2c(F)c(-c3cc(O)cc4cccc(Cl)c34)ncc12` [Example 36, 5-chloro-4-(4-(((1-(dimethylamino)cyclobutyl)methyl)(methyl)amino)-8-fluoro-2-(((2R,7aS)-2-fluorotetrahydro-1H-pyrrolizin-7a(5H)-yl)methoxy)pyrido[4,3-d]pyrimidin-7-yl)naphthalen-2-ol dihydrochloride]: the values for the IC50 in assay [1] and in assay [3] (setting [4]) were 76.5 nM and 3290 nM, respectively. Also, the Kd in assay [2] turned out to be 135 nM.

Consider `NC1(CNc2nc(OC[C@@]34CCCN3C[C@H](F)C4)nc3c(F)c(-c4cc(O)cc5ccccc45)ncc23)CCC1` [Example 29, 4-(4-(((1-aminocyclobutyl)methyl)amino)-8-fluoro-2-(((2R,7aS)-2-fluorotetrahydro-1H-pyrrolizin-7a(5H)-yl)methoxy)pyrido[4,3-d]pyrimidin-7-yl)naphthalen-2-ol bis(2,2,2-trifluoroacetate)], for which the figures for the IC50 in assay [1] and in assay [3] (setting [4]) were 62.8 nM and 1560 nM, respectively.

`CN(C)C(=O)OC[C@H]1CC[C@@]2(COc3nc(NCC4(N(C)C)CCC4)c4cnc(-c5cccc6cccc(Cl)c56)c(F)c4n3)CCCN12` [Example 51, ((3R,7aR)-7a-(((7-(8-chloronaphthalen-1-yl)-4-(((1-(dimethylamino)cyclobutyl)methyl)amino)-8-fluoropyrido[4,3-d]pyrimidin-2-yl)oxy)methyl)hexahydro-1H-pyrrolizin-3-yl)methyl dimethylcarbamate]: the IC50 is 102 nM in assay [1] and over 16700 nM in assay [3] (setting [4]).

For the molecule `CN(C)C1(CNc2nc(OCC34CCCN3CCC4)nc3c(F)c(-c4cccc5cccc(Cl)c45)ncc23)CCC1` [Example 54, 7-(8-chloronaphthalen-1-yl)-N-((1-(dimethylamino)cyclobutyl)methyl)-8-fluoro-2-((tetrahydro-1H-pyrrolizin-7a(5H)-yl)methoxy)pyrido[4,3-d]pyrimidin-4-amine], the IC50 in assay [1] is 79.3 nM; in assay [3] (setting [4]), over 16700 nM.

In the case of `CCc1c(F)ccc2cc(O)cc(-c3ncc4c(NCC5(N(C)C)CCC5)nc(OC[C@]56CCCN5[C@@H](COC(=O)N(C)C)CC6)nc4c3F)c12` [Example 46, ((3R,7aR)-7a-(((4-(((1-(dimethylamino)cyclobutyl)methyl)amino)-7-(8-ethyl-7-fluoro-3-hydroxynaphthalen-1-yl)-8-fluoropyrido[4,3-d]pyrimidin-2-yl)oxy)methyl)hexahydro-1H-pyrrolizin-3-yl)methyl dimethylcarbamate], the IC50 in assay [1] was determined as 0.7 nM; in assay [3] (setting [4]) it was 38.7 nM.

Take `CCc1cccc2cc(O)cc(-c3ncc4c(NCC5(N(C)C)CCC5)nc(OC[C@@]56CCCN5[C@H](COC(=O)NC)CC6)nc4c3F)c12` (racemic) [Example 44]: the values for the IC50 in assay [1] and in assay [3] (setting [4]) were 0.7 nM and 220 nM, respectively.
